Source: US20250186448A1 (Mezzion Pharma Co., Ltd., priority 2021, published 2025)
Values joined by “and” are separate entries in the source; they are usually repeats but may differ in a detail not shown here. Equal entries are not always repeated.

Tested on: adolescents with Single Ventricle Heart Disease who underwent Fontan palliation
Assay: FALD study: liver stiffness by MR elastography
Format: in vivo, human
Parameters: MRE, Post Baseline: unit not given beside the values; MRE, Change from Baseline / MRE, Baseline: unit not given here
Experimental: MR elastography uses a vibrating passive driver or “paddle” placed on the abdominal wall over the liver in order to generate in vivo shear waves. These shear waves can be tracked using an MRI modified phase contrast pulse sequence. Shear wave data is then used to generate color parameteric maps (elastograms) of liver stiffness that allow quantitative assessment (FIG. 4). […] Pairwise ICCs ranged from 0.67-0.82 when agreement was assessed between individual sequences across manufacturers (GE vs. Philips); the greatest agreement while fixing the pulse sequence was at 1.5 T using 2D GRE sequences (ICC=0.82, r=0.85). Trout […], Kohli R, Sprague […]. Prospective assessment of correlation between US acoustic radiation forced impulse and MR elastography in a pediatric population: Dispersion of US shear-wave speed measurement matters. Radiology 2016 December; 282(3): 544-552. The FALD study, ClinicalTrials.gov Identifier: NCT03430583, which is incorporated herein by reference in its entirety, was an open-label extension study that integrated with the FUEL Extension Trial. […] Both the U- cohort and the U+ cohort had liver stiffness measured by ultrasound and MR elastography (where available), and ELF biomarkers analyzed, as described above. […] The primary outcome measure of the FALD study was the range of liver stiffness in adolescents with Single Ventricle Heart Disease who underwent Fontan palliation. Secondary outcome measures included the effect of drug therapy on liver stiffness, and the effect of drug therapy on Enhanced Liver Fibrosis (ELF) score. See Clinical Trials.gov identifier NCT03430583, at p. 3. It is to be understood that present invention contemplates udenafil drug products that are therapeutically equivalent to the udenafil drug products of the present invention.

[1] = Cohort U+ (udenafil for 78 weeks), individual subject
[2] = Cohort U− (udenafil for 52 weeks), individual subject
[3] = individual subject listing, Safety Population

CCCOc1ccc(S(=O)(=O)NCCC2CCCN2C)cc1-c1nc2c(CCC)nn(C)c2c(=O)[nH]1 (stereo not shown) [Udenafil, udenafil]
MRE, % Change from Baseline [1]: 2.863% and −2.262% and 12.04% and −0.4975% and 7.265% and −14.99% and −24.27% and 16.67% and 18.93% and 0.4975% and −29.4964% and 2.198% and −16.26% and 10.4% and −20.63% and −8.58% and −11.11% and −19.68% and −21.1704% and −12.02% and −6.235% | MRE, Change from Baseline [1]: 0.15 and −0.1 and 0.49 and −0.03 and 0.98 and 0.34 and −0.52 and −1.59 and 0.81 and 0.03 and −1.64 and 0.1 and −0.86 and 0.7 and −1.05 and −0.58 and −0.67 and −0.98 and −1.23 and −0.59 and −0.26 | MRE, Baseline (Cohort U+ (udenafil for 78 weeks), individual subject, Baseline visit): 4.42 and 5.88 and 4.07 and 6.03 (3×) and 4.68 and 3.47 and 6.55 and 4.28 and 5.56 and 3.65 and 4.55 and 5.29 and 6.73 and 5.09 and 6.76 and 4.98 and 5.81 and 4.91 and 4.17 and 5.24 | MRE, Post Baseline (Cohort U+ (udenafil for 78 weeks), individual subject, Post Baseline visit (52 week)): 5.39 and 4.32 (2×) and 6.86 and 4.56 and 6 and 5.02 and 2.95 and 4.96 and 5.09 and 6.06 and 3.92 and 4.65 and 4.43 and 7.43 and 4.04 and 6.18 and 5.36 and 4 and 4.58 and 3.91 | MRE, % Change from Baseline [2]: 8.484% and 8.085% | MRE, Change from Baseline [2]: 0.61 and 0.19 | MRE, Post Baseline (Cohort U− (udenafil for 52 weeks), individual subject, Post Baseline visit (52 week)): 7.8 and 2.54 | MRE, % Change from Baseline [3]: 2.488% and −28.79% and 3.632% and −2.018% and −21.1838% and 67.93% and 25.85% and 11.98% and −10.36% and 12.33% and −5.348% and 17.24% and 33.15% and −8% and −7.32% | MRE, Change from Baseline [3]: 0.1 and −1.48 and 0.15 and −0.11 and −1.36 and 3.05 and 1.22 and 0.72 and −0.43 (2×) and 0.64 and 1 and 1.2 and −0.44 and −0.53 | MRE, Post Baseline (individual subject listing, Safety Population, Post Baseline visit): 4.12 and 3.66 and 4.28 and 5.34 and 5.06 (2×) and 7.54 and 5.94 and 6.73 and 3.72 and 5.83 and 2.81 and 7.61 and 6.8 and 4.82 and 6.71
